# Like-named read-outs stand apart in the source and are kept apart here. Non-standard residues stand in square brackets, D forms with d. Residues, ends and D or L forms follow the SMILES beside them. No end group written: not given here. Orn = NCCC[C@H](N)C(=O)O
# Key:
# E. coli H16 [1] = assay: In vivo protection of neutropenic mice from lethal E. coli H16 infection (magainin 2, C-13 peptide, cefepime, amikacin); conditions: magainin 2 two injections 1 mg/mouse; amikacin two injections of 3 mg/kg
# Experimental: The ability of magainin and cefepime combinations to protect mice from a lethal infection of E. coli was examined. Mice were made neutropenic by injection of Cytoxan and then challenged with E. coli. Mice were then divided into four different groups: (1) mice that were given no further treatment; (2) were given magainin 2 or C-13 peptide only; (3) were given cefepime only and (4) were given a combination of magainin 2 or C-13 peptide and cefepime. […] When amikacin, an aminoglycoside, was tested in similar experiments, no in vitro bactericidal activity or in vivo protection was found.
# Mice were made neutropenic five days prior to bacterial challenge. Neutropenia was induced by subcutaneous injection of 250 mg/kg Cytoxan (cyclophosphamide). The mice were challenged with 2×10^4 E. coli H16. Challenge was by intraperitoneal injection. […] The survival of the mice was monitored for a period of at least 10 days
# E. coli ATCC 25922 = assay: Serum bactericidal assay in 40% pooled normal human serum (magainin 2 with antibiotics); assay type: cell-based, Escherichia coli; conditions: for synergy of antibiotic with magainin 2: 1/32, 1/16, 1/8 MIC antibiotic, 200 μg/ml magainin 2, 40% pooled normal human serum
# human red blood cells = assay: Hemolysis assay; assay type: cell-based
# E. coli H16 [2] = assay: In vivo protection of neutropenic mice from systemic E. coli H16 infection (C-13 peptide analogs)
# Text: The ability of C-13 peptide analogs and cefepime combinations to protect mice from a lethal infection of E. coil was examined. Mice were made neutropenic by an injection of cyclophosphamide and then challenged with E. coli. Mice were then divided into four groups: (1) mice that were given PBS; (2) were given C-13 peptide analogs only; (3) were given cefepime only; and (4) were given a combination of C-13 peptide analogs and cefepime.
# Male CrL:CF1 mice were made neutropenic five days prior to bacterial challenge. Neutropenia was induced by subcutaneous injection of 250 mg/kg Cytoxan (cyclophosphamide). The mice were challenged with either 2×10^4 E. coli H16 (Table 4) or 5×10^4 A645AP by intraperitoneal injection. Mice were divided into four treatment groups: (1) PBS; (2) C-13 peptide analog (15 mg/kg); (3) cefepime (0.1 mg/kg); (4) a combination treatment of cefepime and C-13 peptide analog (0.1 mg/kg cefepime and 15 mg/kg C-13 peptide analog) that were combined prior to injection. All injections were made in PBS (0.2 ml) and were administered intramuscularly with each injection in separate legs, one and 3.5 hours after bacterial challenge. The survival of the mice was monitored for ten days and the results analyzed by the Fisher Exact test.
# [3] = test system: endothelial cell proliferation; conditions: Maione et al., 1990; cited from earlier work
# [4] = test system: E. COLI A645 (ATCC 25922); assay: In vitro bactericidal activity (ID50) of cationic oligopeptides, serum bactericidal assay; assay type: cell-based, Escherichia coli
# Experimental: Cells were diluted without washing to 5×10^4 cells/ml gelatin-veronel buffer (GBV++) and 0.05 ml was added to serum (see section 7.1.3.) in a 1.5 ml Eppendorf vial. For those bacterial cells pregrown in cefepime, the same amount of cefepime that was present during growth was added for both the preparation and examination of bactericidal activity. […] Peptides were diluted in deionized water to make a stock solution of 2 mg/ml and added to the reaction vial to give the appropriate concentration. The total reaction volume was 0.25 ml.
# [5] = neutropenic mice, 2×10^4 E. coli H16 i.p., peptide 15 mg/kg, cefepime 0.1 mg/kg i.m. at one and 3.5 hours, ten days
compound,measurement,setting,value
NCC[C@H](O)C(=O)N[C@@H]1C[C@H](N)[C@@H](O[C@H]2O[C@H](CN)[C@@H](O)[C@H](O)[C@H]2O)[C@H](O)[C@H]1O[C@H]1O[C@H](CO)[C@@H](O)[C@H](N)[C@H]1O [amikacin],"mice survived (out of total), amikacin experiment",E. coli H16 [1],three out of 10
same,synergy of antibiotic with magainin 2,E. coli ATCC 25922,"neither Amikacin, an aminoglycoside and ciproflaxacin, a quinoline were synergistic"
"CC(C)C[C@H](NC(=O)[C@H](C)N)C(=O)N[C@@H](Cc1ccc(O)cc1)C(=O)N[C@@H](CCCN)C(=O)N[C@@H](CCCN)C(=O)N[C@@H](CC(C)C)C(=O)N[C@@H](CC(C)C)C(=O)N[C@@H](CCCN)C(=O)N[C@@H](CCCN)C(=O)N[C@@H](CC(C)C)C(=O)N[C@@H](CC(C)C)C(=O)N[C@@H](CCCN)C(=O)N[C@@H](CO)C(=O)N[C@@H](C)C(=O)N[C@@H](CCCN)C(=O)N[C@@H](CCCN)C(=O)N[C@@H](CC(C)C)C(=O)NCC(=O)O [analog II, Ala--Leu--Tyr--Orn--Orn--Leu--Leu--Orn--Orn--Leu--Leu--Orn--Ser--Ala--Orn--Orn--Leu--Gly] (H-ALY[Orn][Orn]LL[Orn][Orn]LL[Orn]SA[Orn][Orn]LG-OH)",RBC LYSIS (%) (100 μG/ML),human red blood cells,< 1%
"CC(C)C[C@@H](NC(=O)[C@@H](C)N)C(=O)N[C@H](Cc1ccc(O)cc1)C(=O)N[C@H](CCCCN)C(=O)N[C@H](CCCCN)C(=O)N[C@H](CC(C)C)C(=O)N[C@H](CC(C)C)C(=O)N[C@H](CCCCN)C(=O)N[C@H](CCCCN)C(=O)N[C@H](CC(C)C)C(=O)N[C@H](CC(C)C)C(=O)N[C@H](CCCCN)C(=O)N[C@H](CO)C(=O)N[C@H](C)C(=O)N[C@H](CCCCN)C(=O)N[C@H](CCCCN)C(=O)N[C@H](CC(C)C)C(=O)NCC(=O)O [analog X, dAla--dLeu--dTyr--dLys--dLys--dLeu--dLeu--dLys--dLys--dLeu--dLeu--dLys--dSer--dAla--dLys--dLys--dLeu--Gly] (H-[dA][dL][dY][dK][dK][dL][dL][dK][dK][dL][dL][dK][dS][dA][dK][dK][dL]G-OH)",RBC LYSIS (%) (100 μG/ML),human red blood cells,< 1%
C[C@H]1[C@H](NC(=O)/C(=N\OC(C)(C)C(=O)O)c2csc(N)n2)C(=O)N1S(=O)(=O)O [aztreonam],"mice survived (out of total), aztreonam experiment",E. coli H16 [2]; similar experiments with aztreonam,one out of 20
same,synergy of antibiotic with magainin 2,E. coli ATCC 25922,synergistic
CC(C)(O/N=C(\C(=O)N[C@@H]1C(=O)N2C(C(=O)[O-])=C(C[n+]3ccccc3)CS[C@H]12)c1csc(N)n1)C(=O)O [ceftazidime],synergy of antibiotic with magainin 2,E. coli ATCC 25922,synergistic
O=C(O)c1cn(C2CC2)c2cc(N3CCNCC3)c(F)cc2c1=O [ciprofloxacin],synergy of antibiotic with magainin 2,E. coli ATCC 25922,"neither Amikacin, an aminoglycoside and ciproflaxacin, a quinoline were synergistic"
C[C@@H](O)[C@H]1C(=O)N2C(C(=O)O)=C(SCCN=CN)C[C@H]12 [imipenem],synergy of antibiotic with magainin 2,E. coli ATCC 25922,synergistic
"AKKLAKLYKKLLKKLLKSAKKLG [analog J, Ala--Lys--Lys--Leu--Ala--Lys--Leu--Tyr--Lys--Lys--Leu--Leu--Lys--Lys--Leu--Leu--Lys--Ser--Ala--Lys--Lys--Leu--Gly]",RBC LYSIS (%) (100 μG/ML),human red blood cells,2.5%
same,change in the amount of RBC lysis,human red blood cells,increased the amount of RBC lysis
"ALYKKIIKKLLESAKKLG [analog H, Ala--Leu--Tyr--Lys--Lys--Ile--Ile--Lys--Lys--Leu--Leu--Glu--Ser--Ala--Lys--Lys--Leu--Gly]",RBC LYSIS (%) (100 μG/ML),human red blood cells,1.5%
"ALYKKLLKKLLESAKKLG [analog F, Ala--Leu--Tyr--Lys--Lys--Leu--Leu--Lys--Lys--Leu--Leu--Glu--Ser--Ala--Lys--Lys--Leu--Gly]",RBC LYSIS (%) (100 μG/ML),human red blood cells,< 1%
"ALYKKLLKKLLKFAKKFG [analog P, Ala--Leu--Tyr--Lys--Lys--Leu--Leu--Lys--Lys--Leu--Leu--Lys--Phe--Ala--Lys--Lys--Phe--Gly]",RBC LYSIS (%) (100 μG/ML),human red blood cells,21%
"ALYKKLLKKLLKKAKKLG [analog KK, Ala--Leu--Tyr--Lys--Lys--Leu--Leu--Lys--Lys--Leu--Leu--Lys--Lys--Ala--Lys--Lys--Leu--Gly]",RBC LYSIS (%) (100 μG/ML),human red blood cells,< 1%
"ALYKKLLKKLLKSAKKLG [analog G, Ala--Leu--Tyr--Lys--Lys--Leu--Leu--Lys--Lys--Leu--Leu--Lys--Ser--Ala--Lys--Lys--Leu--Gly]",RBC LYSIS (%) (100 μG/ML),human red blood cells,< 1%
same,change in the amount of RBC lysis,human red blood cells,no increase
"ALYRRLLRRLLRSARRLG [analog HH, Ala--Leu--Tyr--Arg--Arg--Leu--Leu--Arg--Arg--Leu--Leu--Arg--Ser--Ala--Arg--Arg--Leu--Gly]",RBC LYSIS (%) (100 μG/ML),human red blood cells,3%
"C-10: human platelet factor-4 peptide, amino acids 58-67 (PLYKKIIKKL; UniProt P02776 89-98, looked up, fragment)",inhibitory action compared with C-13,[3],Little inhibitory action
"C-11: human platelet factor-4 peptide, amino acids 58-68 (PLYKKIIKKLL; UniProt P02776 89-99, looked up, fragment)",inhibitory action compared with C-13,[3],less inhibitory
"C-12: human platelet factor-4 peptide, amino acids 58-69 (PLYKKIIKKLLE; UniProt P02776 89-100, looked up, fragment)",inhibitory action compared with C-13,[3],less inhibitory
Cecropin,RBC LYSIS (%) (100 μG/ML),"human red blood cells; 100 μG/ML peptide, 37° C. for 45 minutes",< 1%
same,protection from systemic E. coli H16 infection,E. coli H16 [2]; Fisher Exact test,no significant increase in protection
same,% Survival,E. coli H16 [2]; [5],20%
same,Number--Survived/Total,E. coli H16 [2]; [5],2/20
same,ID50 1/4 MIC CEFEPIME NHS,"[4]; 1/4 MIC cefepime, NHS",.25 µg/mL
same,ID50 1/4 MIC CEFEPIME HI-NHS,"[4]; 1/4 MIC cefepime, heat inactivated NHS",.5 µg/mL
same,ID50 NO CEFEPIME NHS,"[4]; no cefepime, NHS",1 µg/mL
same,ID50 NO CEFEPIME HI-NHS,"[4]; no cefepime, heat inactivated NHS",1 µg/mL
"KWKLYKKLLKKLLKSAKKLG [analog N, Lys--Trp--Lys--Leu--Tyr--Lys--Lys--Leu--Leu--Lys--Lys--Leu--Leu--Lys--Ser--Ala--Lys--Lys--Leu--Gly]",RBC LYSIS (%) (100 μG/ML),human red blood cells,7.5%
"MGN 1: magainin 1, 23 amino acid cationic oligopeptide from skin secretions of Xenopus laevis (GIGKFLHSAGKFGKAFVGEIMKS; Magainin-1; UniProt P11006 37-59, looked up)",MGN killing of untreated bacteria,"E. coli ATCC 25922; untreated bacteria, 40% PNHS",blocked the action
"PLYKKIIKKLLES [C-13, Pro--Leu--Tyr--Lys--Lys--Ile--Ile--Lys--Lys--Leu--Leu--Glu--Ser]",RBC LYSIS (%) (100 μG/ML),human red blood cells,< 1%

# From patent US5409898A, “Compositions and methods for treating infections caused by organisms sensitive to β-lactam antibiotics” (priority 1994, dated 1995)
